# Patent US8119563B2, “N-substituted azacycles” (FMC Corporation, priority 2003, dated 2012)
# Tested on: tobacco budworm (Heliothis virescens [Fabricius])
# Test: surface-treated diet test, insecticidal activity against tobacco budworm
# Format: in vivo
# Settings: 0.25 millimoles of candidate insecticide on the surface of the diet, second instar larvae, five-day exposure; for Percent Mortality: compared to total number of insects infested; for Percent Growth Inhibition: inhibition of insect weight relative to untreated controls
# Method in brief: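 Second-instar larvae (~5 mg) were held five days at 25° C and 60% RH on artificial diet whose surface carried dried compound (0.25 millimolar standard rate; DMSO serial dilutions for rate series, six replicates each). Readouts: mortality and weight inhibition relative to DMSO-treated controls.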
SMILES,Percent Mortality [%],Percent Growth Inhibition [%]
CCCCC(CC)C(=O)[O-].CCON=Cc1ccc(C[N+]2(O)CCC(O)(C(c3ccc(OC(F)(F)F)cc3)c3ccc(OC(F)(F)F)cc3)CC2)cc1 (stereo not shown) [Compound 486],100,100
CCON=Cc1ccc(C[N+]2(O)CCC(O)(C(c3ccc(OC(F)(F)F)cc3)c3ccc(OC(F)(F)F)cc3)CC2)cc1.O=S(=O)([O-])C(F)(F)C(F)(F)C(F)(F)C(F)(F)F (stereo not shown) [Compound 487],100,100
O=C(O)CC(O)(CC(=O)O)C(=O)[O-].OC1(C(c2ccc(C(F)(F)F)cc2)c2ccc(C(F)(F)F)cc2)CC[N+](O)(Cc2ccc(Oc3ccc(Cl)nn3)cc2)CC1 (stereo not shown) [Compound 488],100,100
NC(=O)CON=Cc1ccc(C[N+]2(O)CCC(O)(C(c3ccc(OC(F)(F)F)cc3)c3ccc(OC(F)(F)F)cc3)CC2)cc1.O=C(O)CC(O)(CC(=O)O)C(=O)[O-] (stereo not shown) [Compound 489],100,100
CC1(C)[C@@H]2CCC1(CS(=O)(=O)[O-])C(=O)C2.CCON=Cc1ccc(C[N+]2(O)CCC(O)(C(c3ccc(OC(F)(F)F)cc3)c3ccc(OC(F)(F)F)cc3)CC2)cc1 (stereo not shown) [Compound 490],100,100
CCON=Cc1ccc(C[N+]2(O)CCC(O)(C(c3ccc(OC(F)(F)F)cc3)c3ccc(OC(F)(F)F)cc3)CC2)cc1.CCS(=O)(=O)[O-] (stereo not shown) [Compound 491],100,100
O=C(O)CC(O)(CC(=O)O)C(=O)[O-].OC1(C(c2ccc(OC(F)(F)F)cc2)c2ccc(OC(F)(F)F)cc2)CC[N+](O)(Cc2ccc(Oc3ccc(Cl)nn3)cc2)CC1 (stereo not shown) [Compound 492],100,100
CCON=Cc1ccc(C[N+]2(O)CCC(O)(C(c3ccc(OC(F)(F)F)cc3)c3ccc(OC(F)(F)F)cc3)CC2)cc1.O=C([O-])C1CCCCC1 (stereo not shown) [Compound 493],100,100
CCON=Cc1ccc(C[N+]2(O)CCC(O)(C(c3ccc(OC(F)(F)F)cc3)c3ccc(OC(F)(F)F)cc3)CC2)cc1.O=C(O)CC(O)(CC(=O)O)C(=O)[O-] (stereo not shown) [Compound 494],100,100
CCON=Cc1ccc(C[N+]2(O)CCC(O)(C(c3ccc(OC(F)(F)F)cc3)c3ccc(OC(F)(F)F)cc3)CC2)cc1.O=S(=O)([O-])C(F)(F)C(F)(F)C(F)(F)C(F)(F)C(F)(F)C(F)(F)C(F)(F)C(F)(F)F (stereo not shown) [Compound 495],100,100
O=S(=O)([O-])C(F)(F)C(F)(F)C(F)(F)C(F)(F)C(F)(F)C(F)(F)C(F)(F)C(F)(F)F.OC1(C(c2ccc(OC(F)(F)F)cc2)c2ccc(OC(F)(F)F)cc2)CC[N+](O)(Cc2ccc(Oc3ccccn3)cc2)CC1 (stereo not shown) [Compound 496],100,100
OC1(C(c2ccc(OC(F)(F)F)cc2)c2ccc(OC(F)(F)F)cc2)CC[N+](O)(Cc2ccc(Oc3ccccn3)cc2)CC1.[Cl-] (stereo not shown) [Compound 497],100,100
CC1(C)[C@H]2CCC1(CS(=O)(=O)[O-])C(=O)C2.OC1(C(c2ccc(OC(F)(F)F)cc2)c2ccc(OC(F)(F)F)cc2)CC[N+](O)(Cc2ccc(Oc3ccccn3)cc2)CC1 (stereo not shown) [Compound 498],100,100
CCCCC(CC)C(=O)[O-].OC1(C(c2ccc(OC(F)(F)F)cc2)c2ccc(OC(F)(F)F)cc2)CC[N+](O)(Cc2ccc(Oc3ccccn3)cc2)CC1 (stereo not shown) [Compound 499],100,100
